# Assay results: article PMC4300089, “Structure-Guided Design of Selective Epac1 and Epac2 Agonists” (PLoS Biology, 2015)
# Read-outs that look alike come from different tables or passages of the source.
# Assays:
# Epac2^fl = molecular target: T1, Epac2^fl (Mus musculus, UniProt Q9EQZ6); assay: Epac activation assay, full length Epac2; format: biochemical; parameters: made in house; details: Epac2^fl; for Rel. kmax: maximal activity relative to cAMP
# T1 sequence (Q9EQZ6 1-993 isoform Q9EQZ6-3): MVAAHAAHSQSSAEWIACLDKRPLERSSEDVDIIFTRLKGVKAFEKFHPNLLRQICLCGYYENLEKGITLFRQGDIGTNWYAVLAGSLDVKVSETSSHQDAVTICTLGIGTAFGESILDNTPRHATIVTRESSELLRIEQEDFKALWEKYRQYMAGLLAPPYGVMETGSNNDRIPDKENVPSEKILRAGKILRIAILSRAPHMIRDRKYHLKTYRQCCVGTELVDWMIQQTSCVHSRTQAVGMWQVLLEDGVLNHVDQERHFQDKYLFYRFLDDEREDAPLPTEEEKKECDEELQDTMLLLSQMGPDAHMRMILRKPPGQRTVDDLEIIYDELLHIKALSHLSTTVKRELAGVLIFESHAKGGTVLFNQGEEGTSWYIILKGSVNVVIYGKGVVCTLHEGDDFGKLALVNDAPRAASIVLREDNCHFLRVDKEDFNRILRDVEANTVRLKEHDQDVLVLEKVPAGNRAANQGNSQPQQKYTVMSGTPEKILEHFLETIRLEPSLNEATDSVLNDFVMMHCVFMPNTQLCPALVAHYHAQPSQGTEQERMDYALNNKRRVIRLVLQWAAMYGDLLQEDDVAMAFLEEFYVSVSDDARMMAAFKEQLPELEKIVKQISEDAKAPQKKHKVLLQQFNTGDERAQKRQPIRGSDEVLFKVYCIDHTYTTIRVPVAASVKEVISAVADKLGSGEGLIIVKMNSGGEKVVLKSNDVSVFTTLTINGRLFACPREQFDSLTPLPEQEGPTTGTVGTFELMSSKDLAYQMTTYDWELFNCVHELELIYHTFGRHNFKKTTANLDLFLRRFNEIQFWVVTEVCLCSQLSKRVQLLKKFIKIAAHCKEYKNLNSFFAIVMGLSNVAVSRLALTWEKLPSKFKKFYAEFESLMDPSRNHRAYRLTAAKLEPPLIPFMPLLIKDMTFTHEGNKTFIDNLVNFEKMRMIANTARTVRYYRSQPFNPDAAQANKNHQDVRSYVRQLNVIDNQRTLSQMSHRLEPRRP
# Protocol: (§1) Murine Epac2 was used as all previous structural studies were performed with it.
# (§2) The activity of Epac was determined by a fluorescence assay. […] The fluorescence intensity of Rap1B•mGDP is approximately twice that of free mGDP, and thus, nucleotide exchange can be observed as a decay in fluorescence upon the addition of excess unlabeled GDP.
# Epac2^Δ280 = molecular target: T2, Epac2^Δ280 (Mus musculus, UniProt Q9EQZ6); assay: Epac activation assay (Rap1B•mGDP fluorescence nucleotide exchange), Epac2^Δ280; format: biochemical; details: Epac2^Δ280; for Rel. kmax: maximal activity relative to cAMP
# T2 construct: made in house
# T2 sequence (Q9EQZ6 281-993 isoform Q9EQZ6-3): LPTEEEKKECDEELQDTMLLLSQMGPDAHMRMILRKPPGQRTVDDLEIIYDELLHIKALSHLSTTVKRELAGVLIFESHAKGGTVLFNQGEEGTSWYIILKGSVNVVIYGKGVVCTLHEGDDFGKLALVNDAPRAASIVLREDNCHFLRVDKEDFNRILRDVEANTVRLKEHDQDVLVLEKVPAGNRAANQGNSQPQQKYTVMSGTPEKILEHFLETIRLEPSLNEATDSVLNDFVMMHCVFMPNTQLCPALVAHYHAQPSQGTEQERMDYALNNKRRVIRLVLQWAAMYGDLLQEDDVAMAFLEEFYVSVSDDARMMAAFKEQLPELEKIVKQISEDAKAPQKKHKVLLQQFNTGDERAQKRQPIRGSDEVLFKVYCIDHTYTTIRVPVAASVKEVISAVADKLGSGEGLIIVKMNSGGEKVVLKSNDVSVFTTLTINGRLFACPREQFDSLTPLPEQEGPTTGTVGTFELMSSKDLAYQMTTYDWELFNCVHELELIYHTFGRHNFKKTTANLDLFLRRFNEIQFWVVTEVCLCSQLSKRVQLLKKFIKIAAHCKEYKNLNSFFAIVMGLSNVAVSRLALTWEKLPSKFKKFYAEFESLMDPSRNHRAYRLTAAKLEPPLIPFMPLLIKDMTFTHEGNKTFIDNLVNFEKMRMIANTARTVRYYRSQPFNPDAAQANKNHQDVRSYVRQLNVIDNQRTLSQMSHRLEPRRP
# Protocol: as §1, §2
# Epac1 [1] = molecular target: T3, Epac1 (Homo sapiens, UniProt O95398); assay: Epac activation assay, Epac1; format: biochemical; details: Epac1; for Rel. kmax: maximal activity relative to cAMP
# T3 construct: made in house
# T3 sequence (O95398 150-881 isoform O95398-3): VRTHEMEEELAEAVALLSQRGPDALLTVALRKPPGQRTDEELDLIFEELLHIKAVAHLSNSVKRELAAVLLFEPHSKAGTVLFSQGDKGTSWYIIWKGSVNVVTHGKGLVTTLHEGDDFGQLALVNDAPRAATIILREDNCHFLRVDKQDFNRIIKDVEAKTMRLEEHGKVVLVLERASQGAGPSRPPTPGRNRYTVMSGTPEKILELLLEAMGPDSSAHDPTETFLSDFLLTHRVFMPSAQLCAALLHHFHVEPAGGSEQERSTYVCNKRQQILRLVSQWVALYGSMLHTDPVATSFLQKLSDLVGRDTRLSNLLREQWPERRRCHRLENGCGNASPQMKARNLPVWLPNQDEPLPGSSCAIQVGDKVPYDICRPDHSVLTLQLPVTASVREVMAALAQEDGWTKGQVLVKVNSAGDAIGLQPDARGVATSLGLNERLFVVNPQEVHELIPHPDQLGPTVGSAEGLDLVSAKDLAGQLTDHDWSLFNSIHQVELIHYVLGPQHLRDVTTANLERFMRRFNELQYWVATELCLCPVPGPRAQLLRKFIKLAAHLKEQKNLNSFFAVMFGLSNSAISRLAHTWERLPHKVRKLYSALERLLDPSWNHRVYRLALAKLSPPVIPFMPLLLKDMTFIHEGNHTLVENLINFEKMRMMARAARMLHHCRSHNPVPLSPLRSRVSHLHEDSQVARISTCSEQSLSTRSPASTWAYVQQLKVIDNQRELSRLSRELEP
# Epac1 [2] = molecular target: T3, Epac1; parameters: method as in PMID 12888551; details: footnote c, see also ref 13; cited from earlier work
SMILES,AC50 (Epac2^fl),Rel. kmax (Epac2^fl),AC50 (Epac2^Δ280),Rel. kmax (Epac2^Δ280),AC50 (Epac1 [1]),Rel. kmax (Epac1 [1]),AC50 (Epac1 [2]),Rel. kmax (Epac1 [2])
"Nc1ncnc2c1nc(Br)n2[C@@H]1O[C@@H]2COP(O)(=S)O[C@@H]2C1O (some centres unmarked) [S-010, Sp-8-Br-cAMPS]",8 µM,3.6,0.4 µM,3.5,16 µM,1.0,–,–
"Nc1ncnc2c1nc(Br)n2[C@@H]1O[C@@H]2COP(=O)(O)O[C@H]2[C@H]1O [L-002, 8-Br-cAMP]",–,–,0.4 µM,0.9,–,–,6.2 µM,0.5^c
"Nc1ncnc2c1nc(N1CCCCC1)n2[C@@H]1O[C@@H]2COP(=O)(O)O[C@H]2[C@H]1O [L-018, 8-PIP-cAMP]",–,–,13 µM,3.8,–,–,130 µM,0.9^c
"Nc1ncnc2c1nc(Cl)n2[C@@H]1O[C@@H]2COP(=O)(O)O[C@H]2[C@H]1O [L-001, 8-Cl-cAMP]",–,–,0.3 µM,0.8,–,–,6.9 µM,0.5^c
"CO[C@H]1C2OP(O)(=S)OC[C@H]2O[C@H]1n1c(Br)nc2c(N)ncnc21 (some centres unmarked) [S-014, Sp-8-Br-2′-O-Me-cAMPS]",> 80 µM,–,13 µM,2.0,–,–,–,–
"CSc1nc2c(N)ncnc2n1[C@@H]1O[C@@H]2COP(=O)(O)O[C@H]2[C@H]1SC [D-002, 8,2′-DMeT-cAMP]",110 µM,2.4,2.6 µM,2.0,17 µM,1.4,–,–
"CNc1nc2c(N)ncnc2n1[C@@H]1O[C@@H]2CO[P@](O)(=S)O[C@H]2[C@H]1O [S-030, Sp-8-MeA-cAMPS]",10 µM,7.7,0.7 µM,8.4,30 µM,1.4,–,–
"Nc1ncnc2c1nc(SCc1ccccc1)n2[C@@H]1O[C@@H]2CO[P@](O)(=S)O[C@H]2[C@H]1F [S-222, Sp-8-BnT-2′-F-cAMPS]",15 µM,1.8,4.3 µM,4.2,60 µM,0.09,–,–
"Nc1ncnc2c1[nH]c(=O)n2C1OC2COP(=O)(O)OC2C1O [L-021, 8-OH-cAMP]",–,–,0.6 µM,0.4,–,–,26 µM,0.5^c
"CNc1nc2c(N)ncnc2n1[C@@H]1O[C@@H]2COP(=O)(O)O[C@H]2[C@H]1O [L-005, 8-MeA-cAMP]",–,–,0.6 µM,3.3,–,–,19 µM,0.5^c
"CO[C@H]1C2OP(=O)(O)OC[C@H]2O[C@H]1n1cnc2c(N)ncnc21 (some centres unmarked) [Z-004, 2′-O-Me-cAMP]",–,–,32 µM,1.0,–,–,> 100 µM,–
"Nc1ncnc2c1ncn2[C@H]1C[C@@H]2OP(=O)(O)OC[C@H]2O1 [Z-001, 2′-dcAMP]",–,–,70 µM,1.4,–,–,> 1000 µM,–
